Test results taken from article PMC10096035, “Switching from Aromatase Inhibitors to Dual Targeting Flavonoid-Based Compounds for Breast Cancer Treatment” (Molecules, 2023).

Assays:
[1] = biological target: T1, ERα (Estrogen Receptor α) (Homo sapiens, UniProt P03372); assay: fluorescence polarization competition (PolarScreen); details: read-out: ERα Binding IC50 μM ^1
T1 construct: gene ESR1; purified ERα supplied with the PolarScreen kit (Invitrogen); construct not described
T1 sequence (P03372 1-595): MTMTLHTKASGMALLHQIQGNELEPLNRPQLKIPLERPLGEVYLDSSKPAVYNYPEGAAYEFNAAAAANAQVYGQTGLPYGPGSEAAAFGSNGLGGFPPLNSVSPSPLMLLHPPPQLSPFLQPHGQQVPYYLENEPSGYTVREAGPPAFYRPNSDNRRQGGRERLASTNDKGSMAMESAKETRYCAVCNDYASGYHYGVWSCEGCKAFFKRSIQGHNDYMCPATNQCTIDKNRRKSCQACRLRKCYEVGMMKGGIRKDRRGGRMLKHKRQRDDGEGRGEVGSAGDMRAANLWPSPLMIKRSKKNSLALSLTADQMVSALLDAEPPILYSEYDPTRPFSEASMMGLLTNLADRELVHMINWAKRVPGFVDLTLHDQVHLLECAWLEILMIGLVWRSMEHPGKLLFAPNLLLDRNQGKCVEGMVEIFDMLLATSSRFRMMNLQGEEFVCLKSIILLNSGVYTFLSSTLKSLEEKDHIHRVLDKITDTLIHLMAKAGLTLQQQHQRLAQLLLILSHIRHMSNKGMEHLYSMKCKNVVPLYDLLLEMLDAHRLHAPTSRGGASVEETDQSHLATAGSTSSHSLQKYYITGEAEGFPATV
Source text: fluorescence polarization competition (PolarScreen) on ERα (Estrogen Receptor α)

aromatase (AR; CYP19A) = biological target: T2, aromatase (AR; CYP19A) (Homo sapiens, UniProt P11511); assay: fluorometric aromatase inhibition kit; type: biochemical; details: read-out: AR Inhibition IC50 μM ^1
T2 construct: gene CYP19A1; construct not described
T2 sequence (P11511 1-503): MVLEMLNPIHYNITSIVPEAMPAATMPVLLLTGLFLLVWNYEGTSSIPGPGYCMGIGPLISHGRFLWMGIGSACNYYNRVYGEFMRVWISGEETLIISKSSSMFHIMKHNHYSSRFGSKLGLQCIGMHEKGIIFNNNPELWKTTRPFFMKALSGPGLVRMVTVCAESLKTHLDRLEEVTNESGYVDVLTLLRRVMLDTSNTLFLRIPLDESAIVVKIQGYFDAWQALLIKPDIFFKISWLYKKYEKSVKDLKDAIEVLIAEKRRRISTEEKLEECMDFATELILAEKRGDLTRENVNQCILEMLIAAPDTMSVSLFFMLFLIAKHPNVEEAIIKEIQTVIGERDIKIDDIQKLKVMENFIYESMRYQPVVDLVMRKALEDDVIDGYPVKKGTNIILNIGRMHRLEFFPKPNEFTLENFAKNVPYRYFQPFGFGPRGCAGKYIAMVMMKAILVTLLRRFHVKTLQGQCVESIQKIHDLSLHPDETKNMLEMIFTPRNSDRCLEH
Source text: fluorometric aromatase inhibition kit on aromatase (AR; CYP19A)

Row | SMILES | IC50 [1] | IC50 (aromatase (AR; CYP19A))
1 | N#Cc1ccc(C(c2ccc(C#N)cc2)n2cncn2)cc1 [Letrozole] | > 10 µM | 
2 | O=c1c(Cn2ccnc2)c(-c2ccccc2)oc2ccccc12 [1b] | > 10 µM | 
3 | CC/C(=C(\c1ccc(O)cc1)c1ccc(OCCNC)cc1)c1ccccc1 [Endoxifen] | 0.043 µM | > 10 µM
4 | O=c1c(Cn2ccnc2)c(-c2ccc([N+](=O)[O-])cc2)oc2ccccc12 [1a] | > 10 µM | 

Continued, values first:

Row | IC50 [1] | IC50 (aromatase (AR; CYP19A)) | SMILES
5 | 0.203 µM | 2.2 µM | O=c1c(C(c2ccccc2)n2ccnc2)coc2cc(O)ccc12 (racemic) [4b, 3-((1H-imidazol-1-yl)(phenyl)methyl)-7-hydroxy-4H-chromen-4-one]
6 | > 10 µM |  | O=c1c(C(c2ccc([N+](=O)[O-])cc2)n2ccnc2)coc2ccccc12 (racemic) [3a]
7 | 0.31 µM | 0.5 µM | O=c1c(C(c2ccccc2)n2ccnc2)coc2ccccc12 (racemic) [3b, 3-((1H-imidazol-1-yl)(phenyl)methyl)-4H-chromen-4-one]
8 | > 10 µM | 4 µM | O=c1c(Cn2ccnc2)c(-c2ccccc2)oc2cc(O)ccc12 [2b, 3-((1H-imidazol-1-yl)methyl)-7-hydroxy-2-phenyl-4H-chromen-4-one]
9 | 0.595 µM | 0.122 µM | O=c1c(C(c2ccc([N+](=O)[O-])cc2)n2ccnc2)coc2cc(O)ccc12 (racemic) [4a, 3-((1H-imidazol-1-yl)(4-nitrophenyl)methyl)-7-hydroxy-4H-chromen-4-one]
10 | > 10 µM | 2.1 µM | O=c1c(Cn2ccnc2)c(-c2ccc([N+](=O)[O-])cc2)oc2cc(O)ccc12 [2a, 3-((1H-imidazol-1-yl)methyl)-7-hydroxy-2-(4-nitrophenyl)-4H-chromen-4-one]
